# Patent US7749728B2, “Method and system for measuring the penetration of drugs and other substances into tissue” (Cabenda Pharmaceutical Research Limited, priority 2003, dated 2010)
# What was measured:
# [1] = tested on: HCT-116 MCCs; assay: Fluorescence based evaluation of anthracycline penetration in MCCs; type: cell-based, human; settings: immediately after 1-h, 10 µM drug exposure
# Protocol: MCCs 16 were exposed to anthracyclines from one exposed side 18 using a polyarcylate apparatus 22 (FIG. 2) designed such that the bottom of each insert 10 is clamped against a flat block 24 of apparatus 22 with a layer of Parafilm (American National Can, Chicago, Ill., USA) sandwiched in between to ensure a complete seal. Each MCC 16 was exposed to a 7.5 ml stirred reservoir 28 kept under controlled gassing and temperature. A silicone O-ring 34 was used to seal the gap between the MCC 16 and the orifice in the reservoir 28. […] After 1-hour drug exposure, the reservoirs 28 were rinsed twice with fresh media. […]
# The imaging system consisted of a flurouresence microscope (Zeiss III RS, Oberkochen, Germany), a cooled, monochrome CCD video camera (model 4922, Cohu, San Diego, Calif., USA), frame grabber (Scion, Frederick, Md., USA), a custom built motorized x-y stage and customized NIH-Image software (public domain program developed at the U.S. National Institutes of Health) running on a G4 Macintosh computer. […] For drug fluorescence visualization, MCCs were imaged using unmounted cryosections 1-hour after sectioning using a 510-555 nm excitation filter and a 575-640 nm emission filter.
# Using the NIH-Image software application and user supplied algorithms, digital images of BrdUrd staining and drug fluorescence within MCC cryosections were analyzed in the following manner. […]
# [2] = tested on: cells; settings: uptake rate vs DOX; cited from earlier work
# [3] = tested on: HCT-116 MCCs; assay: MCC penetration assay, effect-based (BrdUrd S-phase labeling after exposure from one side); type: cell-based, human; settings: for decrease in drug exposure seen by cells on the far side relative to the near side / trend of BrdUrd labeling with drug concentration: 1 day after 1-h exposure; for decrease in drug exposure seen by cells on the far side relative to the near side: near-side concentration matching the effect of 10 μM on the far side; for trend of BrdUrd labeling with drug concentration: first 30 μm of tissue
# Protocol: Standard tissue culture inserts 10 (CM 12 mm, pore size 0.4 μm, Millipore, Nepean, ON, Canada) were coated with 150 μl collagen (rat tail type I, Sigma), dissolved in 0.01 M HCl and diluted 1:4 with 60% Ethanol to 0.75 mg/ml, and allowed to dry over night. HCT-116, 0.75×10^6 in 0.5 ml growth media, were then added to the inserts 10 and incubated for 15 hours to allow the cells to attach. The cultures 16 were then incubated for 2 days in custom built growth vessels 21 (FIG. 1(b)) to form multilayered cell cultures (MCCs) 16 which are ˜150 μm in thickness. Each growth vessel 21 includes a frame 23 that held the inserts 10 completely immersed in 130 ml of stirred media (700 rpm, 25 mm stir bar) under continual gassing (5% CO2, balance air) at 37° C. The MCCs 16 were grown in batches of 8 cultures of which 6 were treated with drug and 2 were kept as untreated controls.
# MCCs 16 were exposed to anthracyclines from one exposed side 18 using a polyarcylate apparatus 22 (FIG. 2) designed such that the bottom of each insert 10 is clamped against a flat block 24 of apparatus 22 with a layer of Parafilm (American National Can, Chicago, Ill., USA) sandwiched in between to ensure a complete seal. Each MCC 16 was exposed to a 7.5 ml stirred reservoir 28 kept under controlled gassing and temperature. A silicone O-ring 34 was used to seal the gap between the MCC 16 and the orifice in the reservoir 28. Once placed in the apparatus 22, MCCs 16 were allowed to equilibrate for 45 minutes, drug was then added to the growth medium at concentrations of 0.3, 1, 3 and 10 μM. After 1-hour drug exposure, the reservoirs 28 were rinsed twice with fresh media. MCCs 16 were then incubated for a second hour prior to removal from the apparatus 22 to allow initial drug wash out from the exposed side 18 only. MCCs 16 were then removed, rinsed in fresh media three times for 15 seconds and placed in a growth vessel 21 containing 2 untreated control MCCs 16. Media was replaced at 1 and 4 hours following return to the growth vessel 21, to reduce residual drug levels. Incubation with control MCCs 16 ruled out the possibility that drug wash out into the media from the exposed sides 18 of the MCCs 16 was affecting results. MCCs 16 were left for 1 or 3 days from the time of beginning drug exposure to allow manifestation of drug effect. Following this, 100 μM BrdUrd (5-bromo-2-deoxyuridine, Sigma Chemical, Oakville, ON, Canada) was added to the media and cultures incubated for 4 hours to label S-phase cells. MCCs 16 were then removed, frozen in O.C.T. medium (Tissue-TEK, Torrance, Calif., USA) and stored at −80° C. until sectioning.
# MCC cryosections (10 μm) were air dried for 24 hours and then fixed in a 1:1 mixture of acetone-methanol for 10 minutes at room temperature. Slides were immediately transferred to distilled water for 10 minutes and then treated with 2 M HCl at room temperature for 1 hour followed by neutralization for 5 minutes in 0.1 M Sodium Borate. Slides were then washed in distilled water and transferred to a PBS (phosphate buffered saline) bath. Subsequent steps were each followed by a 5 minute wash in PBS. BrdUrd incorporated into DNA was detected using a 1:200 dilution of monoclonal mouse anti-BrdUrd (clone BU33, Sigma) followed by 1:100 dilution of anti-mouse peroxidase conjugate antibody (Sigma) and 1:10 dilution of metal enhanced DAB substrate (Pierce, Rockford, Ill.). Slides were then counterstained with haematoxylin, dehydrated and mounted using Permount (Fisher Scientific, Fair Lawn, N.J., USA).
# The imaging system consisted of a flurouresence microscope (Zeiss III RS, Oberkochen, Germany), a cooled, monochrome CCD video camera (model 4922, Cohu, San Diego, Calif., USA), frame grabber (Scion, Frederick, Md., USA), a custom built motorized x-y stage and customized NIH-Image software (public domain program developed at the U.S. National Institutes of Health) running on a G4 Macintosh computer. […]
# [4] = weak bases; cited from earlier work
# [5] = tested on: multi-layered cell culture; assay: Example 1: BrdUrd labeling in multi-layered cell culture exposed from one side; type: cell-based; settings: one hour exposure from one side, 24 hours in fresh media; 5, 10 and 100 μM
# Protocol: FIGS. 5 and 6 illustrate test results relating to a multi-layered cell culture 16 exposed to the anthracycline doxorubicin (DOX) (i.e. the test material). Cultures 16 were exposed to doxorubicin (at differing concentrations) from one side 18 only for one hour and then incubated for 24 hours in fresh media. Cultures 16 were then exposed to bromodeoxyuridine (BrdUrd) for two hours to label proliferating cells. BrdUrd is a thymidine analogue that is incorporated into DNA during the S phase of the cell cycle and is therefore an effective marker of cellular proliferation. Following BrdUrd exposure, cultures 16 were frozen and cyrosections taken from them. Cryosections were then immunostained to detect BrdUrd labeled S-phase cells. FIG. 6 illustrates the distribution of BrdUrd-labelled cells as a function of position within the cultures. The results clearly indicate that tissue penetration limits doxorubicin effectiveness.
# [6] = tested on: V79 multicellular spheroids; settings: ~3.5 μM×h exposure, 24 hours in drug free medium before disaggregation; cited from earlier work
Structure (SMILES),fluorescence level on the near side relative to DOX [1],rate of entering cells relative to DOX [2],decrease in drug exposure seen by cells on the far side relative to the near side [3],trend of BrdUrd labeling with drug concentration [3],pKa [4],effect on proliferating cells as a function of position within the culture [5],"surviving fraction, 130 μm into the tissue [6]","surviving fraction, exposed outer layers [6]","concentration at which an equal effect is exerted on either edge of the MCC ([3]; 1 hour exposure at 0.3, 1, 3 and 10 μM, 1 day incubation)"
"COc1cccc2c1C(=O)c1c(O)c3c(c(O)c1C2=O)C[C@@](O)(C(C)=O)C[C@@H]3O[C@H]1C[C@H](N)[C@H](O)[C@H](C)O1 [DAU, daunorubicin]",~7 times,3-10 times,~30 fold,decreasing labeling with increasing drug concentration,~8.3,,,,
"COc1cccc2c1C(=O)c1c(O)c3c(c(O)c1C2=O)C[C@@](O)(C(=O)CO)C[C@@H]3O[C@H]1C[C@H](N)[C@H](O)[C@H](C)O1 [DOX, doxorubicin]",,,~12 fold,decreasing labeling with increasing drug concentration,~8.3,at low concentrations doxorubicin only affects cells close to the site of exposure,~0.6,~0.2,
"COc1cccc2c1C(=O)c1c(O)c3c(c(O)c1C2=O)C[C@@](O)(C(=O)CO)C[C@@H]3O[C@H]1C[C@H](N)[C@@H](O)[C@H](C)O1 [EPI, epirubicin]",~1.5 times,approximately twice,~10 fold,decreasing labeling with increasing drug concentration,~8.1,,,,10 µM
"O=C1c2c(O)ccc(O)c2C(=O)c2c(NCCNCCO)ccc(NCCNCCO)c21 [MIT, mitoxantrone]",,,greater than 30 fold,increase in labeling on the near side with increasing drug concentration,~8.3,,,,
